Two molecules from PMC10620091 (Nature, 2023) can be followed below.

In one data set the target is T1, SpSLC9C1 (Strongylocentrotus purpuratus, UniProt A3RL54).
T1 construct: gene SLC9C1; ITC and nanoDSF: isolated CTD (S946–E1193: helix E', CNBD and β-CTD); cryo-EM: full-length SpSLC9C1 in lipid nanodiscs
T1 sequence (A3RL54 946-1193): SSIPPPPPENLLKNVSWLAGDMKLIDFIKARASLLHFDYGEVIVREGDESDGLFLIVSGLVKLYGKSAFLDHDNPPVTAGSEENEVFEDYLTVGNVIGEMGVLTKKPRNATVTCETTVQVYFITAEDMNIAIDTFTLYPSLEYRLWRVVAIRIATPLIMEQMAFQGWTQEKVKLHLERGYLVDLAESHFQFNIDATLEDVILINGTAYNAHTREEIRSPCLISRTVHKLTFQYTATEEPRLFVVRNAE
The data set is described as follows: ITC (isolated CTD), nanoDSF ([…] °C shift), cryo-EM structure. Format: binding. A general note: DSF heats the sample and reads unfolding from a dye or from intrinsic fluorescence.

Data set [1] concerns the molecule itself. Kind of data set: cryo-EM structure; ligand-free SpSLC9C1 in MSP 2N2 / soy polar lipid nanodiscs, pH 7.6, 150 mM Na+ (20 mM HEPES pH 7.6, 150 mM NaCl); C2 symmetry imposed on the final dimer map.

Usually Kd stands for the free concentration of one partner at which half of the binding sites on the other are occupied at equilibrium, for simple one-to-one binding. As a reminder, the stoichiometry N is a count of units in the complex or per binding partner.

`Nc1nc2c(ncn2[C@@H]2O[C@@H]3COP(=O)(O)O[C@H]3[C@H]2O)c(=O)[nH]1` [cGMP]: the Kd on SpSLC9C1 came to 9.3 µM.

B1: SpSLC9C1 (sperm-specific Na+/H+ exchanger SLC9C1 from the sea urchin Strongylocentrotus purpuratus) (natural protein, UniProt A3RL54 30-1325, looked up)
chain: SSGGSGHTPTTQATHADDHDLTTHNGTEEHDDGHDDGHDDLHAHAPKVIVFISGSCLFGAISRSLFKKLPIPYTVVLLILGAILGVVASNVPLVEEHTRDVAHMDPHVLLQIFLPVLIFESAFAMDVHTFMRSFSQVCILALFGLVVASVLTAVLAMNLFNYNWNFSEAMMFGAIMSATDPVAVVALLKDLGASKQLGTIIEGESLLNDGCAIVIFNVFMKMVFFPQLTSTVGQNVLYFLQVAVAGPLWGYAVAKVTVFFLSHIFNDALVEITITLAATYLTYYIGDIWLEVSGVLAVVVLGLIVNAEKTSISPEVEVFLHRFWEMLAYLANTLIFMMVGVVVTQKALVAVDKMDWFYLIILYLAITIIRGMVISLFSPILSRIGYGLTWRNAVIMTWGGLRGAVGLALALVVENLAGNDVIGSKFLFHTAGIVVLTLVINATTIQTLLRILGMSDISIPKRLAMAGAVRRIHEGQNRTLNMLKSDRFLADADWDIATAACEISDPYSALSDDENAPADELTLGERKSVCPGCKAMVPNEPSPREFADMMEEARLRMLKAEKISYWKQFEHGMLAREALRLLVQHAEVAADEKDQFILVDDLKKSWQIKGIYPWLKRKLEDLISEKKIAAIPMPKYKLGKLMYKICHHMAFEVTINIAIVLNIVPIIMEFVVQDKMASVSTMAAPGSTVSSEPSSLQKIEDALRISNYVFFVIYAIEAIVKILGLGRHYIVSHWNKFDAFILVVALVDIIIAETLLKGSITINLSSIKVVKLFRLLRGLRMLRLTKALIPKLILVVNGKINNQLSLGYDVGKGYIIGEEEVGKIIDRMVDNKKILRELKHISETGRLQVVKELGLLQREHPGIAVSVKTRQAIRTILNHSRETIHELQGAGLLDEMEAHKLELTVEIKMKRLMNAPSSIPPPPPENLLKNVSWLAGDMKLIDFIKARASLLHFDYGEVIVREGDESDGLFLIVSGLVKLYGKSAFLDHDNPPVTAGSEENEVFEDYLTVGNVIGEMGVLTKKPRNATVTCETTVQVYFITAEDMNIAIDTFTLYPSLEYRLWRVVAIRIATPLIMEQMAFQGWTQEKVKLHLERGYLVDLAESHFQFNIDATLEDVILINGTAYNAHTREEIRSPCLISRTVHKLTFQYTATEEPRLFVVRNAEYNGPILDGRLDVDSKRSLISITEISSNMCLKHAAELRQKNSKVMLSRKSSGAAAKEEEDCIPNTSDVEQAAGVSPSVPTKTTPKPKSFLPSLGLSMSKERVNGEAVEESPVKTKQGEETPETEEGAAPRVNV
notes: SpSLC9C1, Strongylocentrotus purpuratus, UniProt A3RL54, gene codon-optimized for mammalian cells; full-length protein; the first 70 N-terminal residues are not resolved in the maps; C-terminal HRV-3C cleavage site followed by Venus, myc and SBP tags; the tags were cleaved off with HRV-3C, so residues of the cleavage site may remain at the C-terminus; Homodimer by cryo-EM; also called full-length …
For the molecule B1, the “stoichiometry N” value in data set [1] is 2.
